Earlier results on seven compounds are cited in article PMC12694011, “Update and ADMET Profile of the Latin American Natural Product Database: LANaPDB” (Molecular Informatics, 2025).

Molecules are shown by their SMILES.

Details of data set [1]: method as in PMID 19947605. The following applies: amphoteric drugs.

As to `O=c1[nH]c2ccccc2n1C1CCN(CCCC(c2ccc(F)cc2)c2ccc(F)cc2)CC1` [pimozide], the “hERG channel blocking (in words)” value in the data set on hERG channel was “potent hERG channel blockers”.
Regarding `N[C@@H]1[C@H]2CN(c3nc4c(cc3F)c(=O)c(C(=O)O)cn4-c3ccc(F)cc3F)C[C@@H]12` [trovafloxacin], in data set [1], the “paracellular transport (in words)” value is on record as “undergo extensive paracellular transport”.
Turning to `Fc1ccc(C(c2ccc(F)cc2)N2CCN(C/C=C/c3ccccc3)CC2)cc1` [flunarizine], the “hERG channel blocking (in words)” value in the data set on hERG channel is reported as “potent hERG channel blockers”.
As for `CN1C(C(=O)Nc2ccccn2)=C(O)c2ccccc2S1(=O)=O` [piroxicam], the “paracellular transport (in words)” value in data set [1] is reported as “undergo extensive paracellular transport”.
Turning to `OCCN1CCN(CCCN2c3ccccc3Sc3ccc(Cl)cc32)CC1` [perphenazine], the “hERG channel blocking (in words)” value with hERG channel was “potent hERG channel blockers”.
For the compound `CC1(C)S[C@@H]2[C@H](/N=C/N3CCCCCC3)C(=O)N2[C@H]1C(=O)O` [amdinocillin], the “paracellular transport (in words)” value in data set [1] is recorded as “undergo extensive paracellular transport”.
With `Nc1nc(O)c2ncn(COC(CO)CO)c2n1` [ganciclovir], in data set [1], the “paracellular transport (in words)” value is given as “undergo extensive paracellular transport”.
